These are literature values, as cited in patent US20100210586A1, “POMEGRANATE EXTRACTS, NUTRITIONAL PRODUCTS CONTAINING THEM AND THEIR USES” (PROBELTE PHARMA, S.A., priority 2007, published 2010).

The conditions of this series: oral.

Take `O=c1oc2c(O)c(O)cc3c(=O)oc4c(O)c(O)cc1c4c23` [ellagic acid]: the “absorption when administered orally” value was “poorly absorbed”.
